Data published in ChEMBL document CHEMBL1128764, “Peptidyl aldehyde derivatives as potent and selective inhibitors of cathepsin L” (Bioorg Med Chem Lett, 1995).
Calls of active or inactive are those of the source. The calls are words filed in the database; no cut-off is given here. Where a SMILES comes first, the peptide text is derived from it. The star is where a group is joined. Cbz = O=C(OCc1ccccc1)*

Assays:
[1] = biological target: T1, Calpain-2 catalytic subunit (Homo sapiens, UniProt P17655); assay: Compound was tested for its inhibitory activity against calpain 2
T1 sequence (P17655 whole entry): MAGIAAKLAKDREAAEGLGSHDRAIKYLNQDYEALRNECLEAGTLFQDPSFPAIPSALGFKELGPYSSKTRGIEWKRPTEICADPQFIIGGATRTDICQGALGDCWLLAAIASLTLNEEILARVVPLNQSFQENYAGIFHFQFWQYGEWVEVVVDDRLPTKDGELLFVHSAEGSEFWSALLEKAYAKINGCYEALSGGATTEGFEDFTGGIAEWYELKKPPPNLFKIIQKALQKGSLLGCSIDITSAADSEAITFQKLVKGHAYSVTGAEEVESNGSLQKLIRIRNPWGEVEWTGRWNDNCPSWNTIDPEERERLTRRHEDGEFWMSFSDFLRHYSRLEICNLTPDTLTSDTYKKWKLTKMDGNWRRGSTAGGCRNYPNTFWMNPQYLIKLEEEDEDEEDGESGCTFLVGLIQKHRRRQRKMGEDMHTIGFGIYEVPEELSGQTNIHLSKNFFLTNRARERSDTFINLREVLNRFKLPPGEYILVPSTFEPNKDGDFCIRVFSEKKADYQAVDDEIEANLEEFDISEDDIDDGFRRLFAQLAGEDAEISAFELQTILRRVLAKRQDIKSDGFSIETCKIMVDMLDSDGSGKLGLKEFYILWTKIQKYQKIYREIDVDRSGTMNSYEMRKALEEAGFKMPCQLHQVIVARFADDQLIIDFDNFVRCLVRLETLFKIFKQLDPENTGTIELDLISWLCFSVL

[2] = biological target: T2, Cathepsin B (Homo sapiens, UniProt P07858); assay: Compound was tested for its inhibitory activity against cathepsin B
[3] = Compound was tested for its inhibitory activity against cathepsin L
[4] = biological target: Chymotrypsinogen A (Bos taurus) (UniProt P00766); assay: Compound was tested for its inhibitory activity against alpha-chymotrypsin at concentration less than 1000 ng/ml; no inhibition
[5] = biological target: T2, Cathepsin B; assay: Ratio of Inhibitory activity against cathepsin B/cathepsin L
[6] = biological target: T1, Calpain-2 catalytic subunit; assay: Compound was tested for its inhibitory activity against Calpain 2

Row | IC50 [1] [nM] | IC50 [2] [nM] | IC50 [3] [nM] | inhibition [4] | Ratio [5] | IC50 [6] [nM] | SMILES
1 | 104 | 97.7 | 2.95 | inactive | 33.1 |  | COc1ccc(C[C@H](NC(=O)[C@H](Cc2ccccc2)NC(=O)OCc2ccccc2)C(=O)O)cc1 (Cbz-Phe-Tyr(Me)-OH)
2 | 79.6 | 836 | 6.96 |  | 120 |  | CCCCOc1ccc(C[C@H](NC(=O)[C@H](Cc2ccccc2)NC(=O)OCc2ccccc2)C(=O)O)cc1
3 |  | 45.1 | 15.5 | inactive | 2.91 |  | C[C@H](NC(=O)[C@H](Cc1ccccc1)NC(=O)OCc1ccccc1)C(=O)O
4 |  | 117 | 70.3 | inactive | 1.66 |  | CC(=O)N[C@@H](CC(C)C)C(=O)N[C@@H](CC(C)C)C(=O)N[C@H](C=O)CCCNC(=N)N [LEUPEPTIN]
5 |  | 17.7 | 0.78 | inactive | 22.7 |  | CC(C)C[C@H](NC(=O)[C@H](Cc1ccccc1)NC(=O)OCc1ccccc1)C(=O)O (Cbz-Phe-Leu-OH)
6 |  | 69.7 | 0.74 | inactive | 94.2 | 104 | O=C(N[C@@H](Cc1ccccc1)C(=O)N[C@@H](Cc1ccccc1)C(=O)O)OCc1ccccc1 (Cbz-Phe-Phe-OH)
7 | 184 | 85.1 | 0.85 | inactive | 100 |  | O=C(N[C@@H](Cc1ccccc1)C(=O)N[C@@H](Cc1ccc(O)cc1)C(=O)O)OCc1ccccc1 (Cbz-Phe-Tyr-OH)
